Read-outs that look alike come from different tables or passages of the source.

From patent publication US9884868B2, “TGF-beta inhibitors” (Rigel Pharmaceuticals, Inc., priority 2015, dated 2018) come the findings set out here.

The target of this assay is HIS-TGF-βR1 T204D (Homo sapiens (Human), UniProt P36897, T204D). In words: HTRF probe displacement assay with HIS-TGF-βR1 T204D. For orientation: In TR-FRET formats the signal depends on donor and acceptor labels being close together.
[1] abbreviates: read-out: TGFbr1 IC50, HTRF probe displacement, 1 nM HIS-TGF-βR1 T204D, 1 hour at room temperature.

Sequence of HIS-TGF-βR1 T204D (P36897 34-503 T204D): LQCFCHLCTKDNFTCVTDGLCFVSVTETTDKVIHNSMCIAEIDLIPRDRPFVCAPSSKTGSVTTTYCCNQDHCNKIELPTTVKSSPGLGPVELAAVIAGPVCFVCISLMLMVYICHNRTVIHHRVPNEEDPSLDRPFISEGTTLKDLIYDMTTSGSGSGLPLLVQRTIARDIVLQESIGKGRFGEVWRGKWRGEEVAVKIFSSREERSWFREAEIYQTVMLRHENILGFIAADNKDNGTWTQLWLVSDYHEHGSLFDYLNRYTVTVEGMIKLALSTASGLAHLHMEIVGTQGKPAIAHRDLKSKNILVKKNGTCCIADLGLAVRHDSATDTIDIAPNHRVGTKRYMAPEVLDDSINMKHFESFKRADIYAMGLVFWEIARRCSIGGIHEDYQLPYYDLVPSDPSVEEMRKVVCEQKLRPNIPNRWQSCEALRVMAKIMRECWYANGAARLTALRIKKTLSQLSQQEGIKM

By IC50 is commonly meant the concentration that inhibits the measured activity by half. As for `CC(C)n1cnc(-c2ccc(F)c(Cl)c2)c1-c1ccc2ncc(C#N)n2n1` [51′, 6-(4-(3-chloro-4-fluorophenyl)-1-isopropyl-1H-imidazol-5-yl)imidazo[1,2-b]pyridazine-3-carbonitrile], the IC50 under setting [1] is 0.6 nM.

On to `N#CCCn1cnc(-c2ccc(F)cc2)c1-c1ccc2ncc(C#N)n2n1` [268′, 6-(1-(2-cyanoethyl)-4-(4-fluorophenyl)-1H-imidazol-5-yl)imidazo[1,2-b]pyridazine-3-carbonitrile], for which, under setting [1], the IC50 came to 19 nM.

Turning to `CCC(CO)n1cnc(-c2ccc(F)cc2)c1-c1ccc2ncc(C#N)n2c1` (stereo not drawn) [83′, 6-(4-(4-fluorophenyl)-1-(1-hydroxybutan-2-yl)-1H-imidazol-5-yl)imidazo[1,2-a]pyridine-3-carbonitrile], under setting [1], the IC50 turned out to be 189 nM.

Regarding `CCC(C)n1cnc(-c2ccc(F)cc2)c1-c1ccc2ncc(C(N)=O)n2c1` (stereo not drawn) [174′, 6-(1-(sec-butyl)-4-(4-fluorophenyl)-1H-imidazol-5-yl)imidazo[1,2-a]pyridine-3-carboxamide], the IC50 under setting [1] worked out at 0.6 nM.

Turning to `NC(=O)c1cnc2ccc(-c3c(-c4cc(Cl)ccc4F)ncn3CC(F)F)cn12` [234′, 6-(4-(5-chloro-2-fluorophenyl)-1-(2,2-difluoroethyl)-1H-imidazol-5-yl)imidazo[1,2-a]pyridine-3-carboxamide], the IC50 under setting [1] came out at 1.1 nM.

Turning to `Fc1ccc(-c2ncn(CC(F)F)c2-c2ccc3nccn3c2)cc1Cl` [219′, 6-(4-(3-chloro-4-fluorophenyl)-1-(2,2-difluoroethyl)-1H-imidazol-5-yl)imidazo[1,2-a]pyridine], under setting [1], the IC50 was determined as 9.9 nM.

Turning to `NC(=O)c1cnc2ccc(-c3c(-c4ccc(F)cc4)ncn3CCF)nn12` [111′, 6-(1-(2-fluoroethyl)-4-(4-fluorophenyl)-1H-imidazol-5-yl)imidazo[1,2-b]pyridazine-3-carboxamide], under setting [1], the IC50 came out at 0.8 nM.

On to `Cc1nc(-c2ccc(F)cc2)c(-c2ccc3nccn3c2)n1CC(F)F` [Example 271′, 6-(1-(2,2-difluoroethyl)-4-(4-fluorophenyl)-2-methyl-1H-imidazol-5-yl)imidazo[1,2-a]pyridine], for which the IC50 under setting [1] was 172 nM.

For the compound `NC(=O)c1cnc2ccc(-c3c(-c4ccc(F)c(Cl)c4)ncn3CC(F)F)nn12` [113′, 6-(4-(3-chloro-4-fluorophenyl)-1-(2,2-difluoroethyl)-1H-imidazol-5-yl)imidazo[1,2-b]pyridazine-3-carboxamide], the IC50 under setting [1] stood at 0.9 nM.

As for `N#Cc1cnc2ccc(-c3c(-c4ccccc4)ncn3CC(F)F)nn12` [237′, 6-(1-(2,2-difluoroethyl)-4-phenyl-1H-imidazol-5-yl)imidazo[1,2-b]pyridazine-3-carbonitrile], the IC50 under setting [1] amounted to 2.9 nM.

Consider `N#Cc1cnc2ccc(-c3c(-c4ccc(F)c(Cl)c4)ncn3CCC(F)(F)F)nn12` [35′, 6-(4-(3-chloro-4-fluorophenyl)-1-(3,3,3-trifluoropropyl)-1H-imidazol-5-yl)imidazo[1,2-b]pyridazine-3-carbonitrile], for which the IC50 was found to be 2.6 nM.

`Fc1ccc(-c2ncn(CC(F)F)c2-c2ccc3nccn3c2)cc1` [Example 218′, 6-(1-(2,2-difluoroethyl)-4-(4-fluorophenyl)-1H-imidazol-5-yl)imidazo[1,2-a]pyridine]: the IC50 under setting [1] amounted to 62.7 nM.

In the case of `C[C@H](O)Cn1cnc(-c2ccc(F)cc2)c1-c1ccc2ncc(C#N)n2c1` [89′, (S)-6-(4-(4-fluorophenyl)-1-(2-hydroxypropyl)-1H-imidazol-5-yl)imidazo[1,2-a]pyridine-3-carbonitrile], the IC50 under setting [1] is 127 nM.

Regarding `CC(O)c1cnc2ccc(-c3c(-c4ccc(F)cc4)ncn3CC(F)F)cn12` (stereo not drawn) [Example 274′, 1-(6-(1-(2,2-difluoroethyl)-4-(4-fluorophenyl)-1H-imidazol-5-yl)imidazo[1,2-a]pyridin-3-yl)ethanol], the IC50 under setting [1] turned out to be 137 nM.

Regarding `CC1(Cn2cnc(-c3ccc(F)c(Cl)c3)c2-c2ccc3ncc(C#N)n3n2)COC1` [45′, 6-(4-(3-chloro-4-fluorophenyl)-1-((3-methyloxetan-3-yl)methyl)-1H-imidazol-5-yl)imidazo[1,2-b]pyridazine-3-carbonitrile], the IC50 under setting [1] came to 2.3 nM.

Take `NC(=O)c1cnc2ccc(-c3c(-c4ccc(F)cc4)ncn3C3CCC3)cn12` [172′, 6-(1-cyclobutyl-4-(4-fluorophenyl)-1H-imidazol-5-yl)imidazo[1,2-a]pyridine-3-carboxamide]: the half-maximal inhibitory concentration (IC50) under setting [1] is 0.5 nM.

Take `N#Cc1cccc(-c2ncn(CC(F)F)c2-c2ccc3ncc(C#N)n3n2)c1` [Example 236]: the IC50 under setting [1] amounted to 2.1 nM.

Regarding `N#Cc1cnc2ccc(-c3c(-c4ccc(F)cc4)ncn3CCCO)nn12` [15′, 6-(4-(4-fluorophenyl)-1-(3-hydroxypropyl)-1H-imidazol-5-yl)imidazo[1,2-b]pyridazine-3-carbonitrile], the IC50 under setting [1] worked out at 2 nM.

As for `CC(C)(O)Cn1cnc(-c2ccc(F)cc2)c1-c1ccc2ncc(C#N)n2n1` [26′, 6-(4-(4-fluorophenyl)-1-(2-hydroxy-2-methylpropyl)-1H-imidazol-5-yl)imidazo[1,2-b]pyridazine-3-carbonitrile], the IC50 under setting [1] is 92.6 nM.

For `CC(CO)n1cnc(-c2ccc(F)cc2)c1-c1ccc2ncc(C#N)n2c1` (stereo not drawn) [81′, 6-(4-(4-fluorophenyl)-1-(1-hydroxypropan-2-yl)-1H-imidazol-5-yl)imidazo[1,2-a]pyridine-3-carbonitrile], the IC50 under setting [1] came to 88.5 nM.

Consider `CCn1cnc(-c2ccc(F)c(Cl)c2)c1-c1ccc2ncc(C#N)n2n1` [52′, 6-(4-(3-chloro-4-fluorophenyl)-1-ethyl-1H-imidazol-5-yl)imidazo[1,2-b]pyridazine-3-carbonitrile], for which the IC50 under setting [1] was found to be 0.9 nM.

The compound `NC(=O)c1cnc2ccc(-c3c(-c4ccc(F)c(Cl)c4)ncn3[C@H]3C[C@@H](O)C3)nn12` [140′, 6-(4-(3-chloro-4-fluorophenyl)-1-((1s,3s)-3-hydroxycyclobutyl)-1H-imidazol-5-yl)imidazo[1,2-b]pyridazine-3-carboxamide] had an IC50 of 2.8 nM.

For the compound `Fc1ccc(-c2ncn([C@@H]3CCC(F)(F)C3)c2-c2ccc3nccn3c2)cc1Cl` [185′, (R)-6-(4-(3-chloro-4-fluorophenyl)-1-(3,3-difluorocyclopentyl)-1H-imidazol-5-yl)imidazo[1,2-a]pyridine], under setting [1], the IC50 turned out to be 30.1 nM.

In the case of `N#Cc1cnc2ccc(-c3c(-c4ccc(F)cc4)ncn3C3CCCC3)cn12` [86′, 6-(1-cyclopentyl-4-(4-fluorophenyl)-1H-imidazol-5-yl)imidazo[1,2-a]pyridine-3-carbonitrile], under setting [1], the IC50 worked out at 94.7 nM.

Turning to `Cn1cnc(-c2ccc(F)cc2)c1-c1ccc2ncc(C(N)=O)n2n1` [134′, 6-(4-(4-fluorophenyl)-1-methyl-1H-imidazol-5-yl)imidazo[1,2-b]pyridazine-3-carboxamide], the IC50 under setting [1] came to 3.9 nM.

For the compound `N#Cc1cnc2ccc(-c3c(-c4cc(Cl)cc(Cl)c4)ncn3CC(F)F)nn12` [238′, 6-(4-(3,5-dichlorophenyl)-1-(2,2-difluoroethyl)-1H-imidazol-5-yl)imidazo[1,2-b]pyridazine-3-carbonitrile], the IC50 under setting [1] is 39.7 nM.

In the case of `CC1(n2cnc(-c3ccc(F)c(Cl)c3)c2-c2ccc3ncc(C#N)n3n2)CC1` [41′, 6-(4-(3-chloro-4-fluorophenyl)-1-(1-methylcyclopropyl)-1H-imidazol-5-yl)imidazo[1,2-b]pyridazine-3-carbonitrile], the 50% inhibitory concentration (IC50) under setting [1] was found to be 0.9 nM.
